Test [1] has as its target Vascular endothelial growth factor receptor 3 (Homo sapiens, UniProt P35916). Description: Inhibition of VEGFR3 (unknown origin).
The next test concerns PC-3. Description: Antitumor activity against human PC3 cells by MTT assay. The test is classed as functional, cell-based.
Test [2] deals with HepG2. Description: Antitumor activity against human HepG2 cells by MTT assay. The test is classed as functional, cell-based.
The next test relates to MCF7. Kind of test: Antitumor activity against human MCF7 cells by MTT assay. The test is classed as functional, cell-based.
A further test deals with PLC. Kind of test: Cytotoxicity against human PLC cells. Type of test: functional, cell-based.
In another test the test system is SMMC-7721. Kind of test: Cytotoxicity against human SMMC7721 cells after 24 hrs by MTT assay. As to conditions: SMMC-7721, 24 h. Type of test: functional, cell-based.
The subject of test [3] is HepG2. Description: Cytotoxicity against human HepG2 cells after 24 hrs by MTT assay. The test is classed as functional, cell-based. As to conditions: HepG2, 24 h.
Test [4] is described as follows: Induction of apoptosis in human PLC5 cells relative to control. The test is classed as functional.
The next test deals with Hep 3B2. Description: Induction of apoptosis in human Hep3B cells relative to control. Type of test: functional.
Test [5] addresses Signal transducer and activator of transcription 3 (Homo sapiens) (UniProt P40763). Kind of test: Activation of STAT3 phosphorylation at Y705 residue in human Huh7 cells relative to control. Type of test: cell-based.
Test [6] relates to HepG2. Description: Induction of apoptosis in human HepG2 cells relative to control. The test is classed as functional.
Test [7] concerns the target Vascular endothelial growth factor receptor 1 (Homo sapiens, UniProt P17948). Kind of test: Inhibition of VEGFR1 (unknown origin).
Another test deals with M21. Kind of test: Antiproliferative activity against human M21 cells bt MTT assay. Type of test: functional, cell-based.

Sequence of Signal transducer and activator of transcription 3 (Homo sapiens) (P40763 whole entry): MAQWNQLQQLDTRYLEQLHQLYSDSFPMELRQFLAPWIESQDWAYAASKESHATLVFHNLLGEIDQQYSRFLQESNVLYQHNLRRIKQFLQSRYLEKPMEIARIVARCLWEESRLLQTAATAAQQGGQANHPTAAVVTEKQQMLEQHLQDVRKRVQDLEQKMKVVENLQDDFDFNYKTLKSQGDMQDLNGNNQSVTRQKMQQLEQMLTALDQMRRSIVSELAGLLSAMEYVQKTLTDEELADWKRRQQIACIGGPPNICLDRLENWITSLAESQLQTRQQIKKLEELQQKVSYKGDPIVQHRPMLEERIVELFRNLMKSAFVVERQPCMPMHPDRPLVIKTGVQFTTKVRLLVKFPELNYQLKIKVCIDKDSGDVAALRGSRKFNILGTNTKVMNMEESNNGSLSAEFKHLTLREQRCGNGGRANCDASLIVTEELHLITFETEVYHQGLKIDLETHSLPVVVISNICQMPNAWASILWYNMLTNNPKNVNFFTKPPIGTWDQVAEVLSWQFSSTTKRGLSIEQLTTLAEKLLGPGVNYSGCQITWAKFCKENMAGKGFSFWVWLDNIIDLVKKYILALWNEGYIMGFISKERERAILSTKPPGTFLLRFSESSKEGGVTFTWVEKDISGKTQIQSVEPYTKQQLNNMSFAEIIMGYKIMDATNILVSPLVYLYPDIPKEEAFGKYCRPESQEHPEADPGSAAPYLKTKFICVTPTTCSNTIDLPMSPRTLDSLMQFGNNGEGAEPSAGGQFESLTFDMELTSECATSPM
Sequence of Vascular endothelial growth factor receptor 1 (P17948 whole entry): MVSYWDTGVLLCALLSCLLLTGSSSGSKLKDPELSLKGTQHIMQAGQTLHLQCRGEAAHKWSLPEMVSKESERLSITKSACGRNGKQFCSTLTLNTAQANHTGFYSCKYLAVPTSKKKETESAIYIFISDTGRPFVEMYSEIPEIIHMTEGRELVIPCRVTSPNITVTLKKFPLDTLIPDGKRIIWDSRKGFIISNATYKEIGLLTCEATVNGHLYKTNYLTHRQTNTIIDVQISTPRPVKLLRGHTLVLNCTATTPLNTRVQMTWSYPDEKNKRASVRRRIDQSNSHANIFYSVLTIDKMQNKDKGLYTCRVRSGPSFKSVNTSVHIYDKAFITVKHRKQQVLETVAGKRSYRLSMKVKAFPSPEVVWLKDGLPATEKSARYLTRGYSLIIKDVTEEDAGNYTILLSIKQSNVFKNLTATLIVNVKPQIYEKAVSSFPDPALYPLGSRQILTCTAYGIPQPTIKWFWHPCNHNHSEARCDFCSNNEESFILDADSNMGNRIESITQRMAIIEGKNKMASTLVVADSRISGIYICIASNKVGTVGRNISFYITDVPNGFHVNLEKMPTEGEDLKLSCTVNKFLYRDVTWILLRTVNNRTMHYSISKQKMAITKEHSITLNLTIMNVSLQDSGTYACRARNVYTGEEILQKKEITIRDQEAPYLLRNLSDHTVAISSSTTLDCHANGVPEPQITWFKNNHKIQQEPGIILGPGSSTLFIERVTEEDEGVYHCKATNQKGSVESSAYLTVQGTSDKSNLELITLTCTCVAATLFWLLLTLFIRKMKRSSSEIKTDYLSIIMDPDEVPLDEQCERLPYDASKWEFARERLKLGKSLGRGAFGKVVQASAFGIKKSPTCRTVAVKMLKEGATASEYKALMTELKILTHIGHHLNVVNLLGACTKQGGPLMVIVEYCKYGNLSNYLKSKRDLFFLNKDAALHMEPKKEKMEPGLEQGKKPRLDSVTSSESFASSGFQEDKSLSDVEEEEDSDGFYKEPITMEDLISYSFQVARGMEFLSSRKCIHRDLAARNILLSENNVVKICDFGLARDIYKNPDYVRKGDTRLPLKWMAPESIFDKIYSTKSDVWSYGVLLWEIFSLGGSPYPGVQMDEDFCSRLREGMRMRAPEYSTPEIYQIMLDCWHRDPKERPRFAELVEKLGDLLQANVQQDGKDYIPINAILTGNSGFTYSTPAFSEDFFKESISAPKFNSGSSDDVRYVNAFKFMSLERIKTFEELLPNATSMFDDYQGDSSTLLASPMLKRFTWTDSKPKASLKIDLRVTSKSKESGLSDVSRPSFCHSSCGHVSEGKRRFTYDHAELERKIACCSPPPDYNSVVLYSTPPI
Sequence of Vascular endothelial growth factor receptor 3 (P35916 whole entry): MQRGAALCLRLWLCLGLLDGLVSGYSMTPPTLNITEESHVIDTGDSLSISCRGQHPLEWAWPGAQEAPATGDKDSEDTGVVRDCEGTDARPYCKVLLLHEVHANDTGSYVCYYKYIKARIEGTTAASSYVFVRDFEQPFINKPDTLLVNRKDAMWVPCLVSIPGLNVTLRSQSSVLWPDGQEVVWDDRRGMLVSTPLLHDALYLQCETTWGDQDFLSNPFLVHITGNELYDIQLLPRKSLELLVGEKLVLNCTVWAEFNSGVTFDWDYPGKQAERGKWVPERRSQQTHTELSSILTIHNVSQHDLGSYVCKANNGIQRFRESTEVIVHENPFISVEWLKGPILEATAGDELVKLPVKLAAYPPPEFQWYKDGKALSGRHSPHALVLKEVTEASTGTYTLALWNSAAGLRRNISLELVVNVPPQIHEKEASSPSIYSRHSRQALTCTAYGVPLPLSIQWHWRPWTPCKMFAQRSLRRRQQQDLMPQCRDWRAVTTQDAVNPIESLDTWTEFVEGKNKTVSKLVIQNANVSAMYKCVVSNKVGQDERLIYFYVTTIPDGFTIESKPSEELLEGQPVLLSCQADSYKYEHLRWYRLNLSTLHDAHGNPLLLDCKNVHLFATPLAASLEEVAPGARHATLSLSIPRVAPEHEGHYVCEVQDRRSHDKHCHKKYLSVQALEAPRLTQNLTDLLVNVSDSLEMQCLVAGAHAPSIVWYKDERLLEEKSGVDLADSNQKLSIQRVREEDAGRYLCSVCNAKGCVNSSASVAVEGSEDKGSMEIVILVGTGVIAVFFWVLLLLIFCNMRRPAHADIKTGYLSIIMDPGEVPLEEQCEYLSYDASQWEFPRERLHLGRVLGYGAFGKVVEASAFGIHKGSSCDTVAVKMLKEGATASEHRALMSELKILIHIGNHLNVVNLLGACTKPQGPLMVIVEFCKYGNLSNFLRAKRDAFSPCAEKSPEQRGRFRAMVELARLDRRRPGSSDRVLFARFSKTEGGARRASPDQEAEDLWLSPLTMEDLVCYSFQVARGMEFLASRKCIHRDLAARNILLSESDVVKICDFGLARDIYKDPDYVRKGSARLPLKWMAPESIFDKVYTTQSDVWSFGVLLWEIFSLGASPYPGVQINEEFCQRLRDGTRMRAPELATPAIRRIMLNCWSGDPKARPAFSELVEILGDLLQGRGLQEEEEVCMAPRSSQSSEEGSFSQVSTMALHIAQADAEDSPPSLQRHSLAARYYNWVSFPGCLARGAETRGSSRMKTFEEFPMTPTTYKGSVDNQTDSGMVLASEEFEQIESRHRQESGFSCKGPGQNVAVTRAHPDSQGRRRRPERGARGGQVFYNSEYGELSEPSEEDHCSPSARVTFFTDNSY

The compound `COc1cc2nccc(Oc3ccc(NC(=O)C4(C(=O)Nc5ccc(F)cc5)CC4)cc3)c2cc1OC` [CABOZANTINIB] gave an IC50 in test [1] of 0.006 µM.
Regarding `CCOC(=O)C1=C(C)OC(N)=C(C#N)C1c1ccc(OC2CCCC2)cc1` (stereo unspecified), the IC50 in the test with PC-3 turned out to be 13.3 µM; with HepG2 [2], 8 µM; with MCF7, 7.5 µM.
Taken in the same sequence, the figures for `O=C1CCC/C1=C\c1ccc(OC2CCCC2)cc1` were 94.1 µM, over 100 µM and over 100 µM.
Consider `Cc1ccc(C(=O)/C=C/c2ccc(OC3CCCC3)cc2)cc1`, for which the half-inhibitory concentration (IC50) is 17.1 µM with PC-3, 20 µM with HepG2 [2] and 36.4 µM in the test on MCF7.
In the test on PLC, `O=C(Nc1ccc(-n2ncc3cc(C(F)(F)F)ccc32)cc1)Nc1ccc(C(F)(F)F)cc1` returned an IC50 of 4.34 µM. This counts as single-digit micromolar.
With `CC(=O)/C=C/c1ccc(OC2CCCC2)cc1`, the IC50 in the test on PC-3 amounted to 21.8 µM; with HepG2 [2], 27.3 µM; with MCF7 it was 40.9 µM.
As for `O=C(Nc1ccc(Cl)cc1)Nc1ccc(Oc2ncnc3cc(F)ccc23)cc1`, the values for the IC50 with SMMC-7721 and in the test on HepG2 [3] were 10.6 µM and 8.08 µM, respectively.
For `Cc1ccc(NC(=O)C2(C(=O)Nc3ccc(C)c(Oc4ccc(C#N)cc4)c3)CC2)cc1Oc1ccc(C#N)cc1`, the Activity amounted to 4.5% in test [4], 2.5% with Hep 3B2, 80% in [5] and 2% in the test with HepG2 [6].
As for `COc1cc2nccc(Oc3ccc(NC(=O)NC4CC4)c(Cl)c3)c2cc1C(N)=O` [LENVATINIB], the IC50 in test [7] worked out at 0.022 µM.
Take `Cc1ccc(NC(=O)Nc2ccc(C)c(Oc3ccc(C#N)cc3)c2)cc1Oc1ccc(C#N)cc1`: the Activity is 17.5% in test [4], 17.5% in the test on Hep 3B2, 40% in test [5] and 22.5% in the test with HepG2 [6].
`CCN1CCC(=O)/C(=C/c2ccc(OC3CCCC3)cc2)C1`: the IC50 in the test on PC-3 was determined as 9.1 µM; in the test on HepG2 [2], 13 µM; in the test with MCF7 it was 13.7 µM.
Taken in the same sequence, the figures for `Cc1ccc(C2=NN(c3ccccc3)C(c3ccc(OC4CCCC4)cc3)C2)cc1` (stereo unspecified) were 7.8 µM, 7.2 µM and 5.6 µM.
As to `O=C1CCCCC/C1=C\c1ccc(OC2CCCC2)cc1`, the figures for the IC50 in the test on PC-3, with HepG2 [2] and with MCF7 were 26.9 µM, 71.3 µM and 64.7 µM, respectively.
In the case of `O=C1CCCC/C1=C\c1ccc(OC2CCCC2)cc1`, the figures for the IC50 in the test with PC-3, in the test with HepG2 [2] and in the test with MCF7 were 71.1 µM, 55.4 µM and 49.4 µM, respectively.
Taken in the same sequence, the figures for `CN1CCC(=O)/C(=C/c2ccc(OC3CCCC3)cc2)C1` were 10.5 µM, 15.9 µM and 18.1 µM.
Turning to `O=C(Nc1ccc(-n2ncc3c(Br)cccc32)cc1)Nc1ccc(Cl)c(C(F)(F)F)c1`, the IC50 in the test with M21 is 3.43 µM.

These data come from ChEMBL document CHEMBL4304778 (Eur J Med Chem, 2019).
